Measured values: ChEMBL document CHEMBL1201862, “PubChem BioAssay data set” (2004)
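Interpolation was linear, between the two tested concentrations surrounding the appropriate level; five concentrations were tested over 48 hours in 96-well plates. GI50 marks 50% less growth.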 The source made the active and inactive calls. Rule as the data show it: active = GI50 up to about 1.1 µM and inactive = higher.

What was measured:
Experiment in all cases: NCI tumour cell line growth inhibition, 48 h
786-0 = tested on: 786-0
A498 = tested on: A498
A549 = tested on: A549
ACHN = tested on: ACHN
CAKI-1 = tested on: CAKI-1
CCRF-CEM = tested on: CCRF-CEM
COLO 205 = tested on: COLO 205
DLD-1 = tested on: DLD-1
DMS-114 = tested on: DMS-114
DMS-273 = tested on: DMS-273
EKVX = tested on: EKVX
HCC 2998 = tested on: HCC 2998
HCT-116 = tested on: HCT-116
HCT-15 = tested on: HCT-15
HL-60 = tested on: HL-60
HOP-18 = tested on: HOP-18
HOP-92 = tested on: HOP-92
HT-29 = tested on: HT-29
IGROV-1 = tested on: IGROV-1
K562 = tested on: K562
KM-20L2 = tested on: KM-20L2
KM12 = tested on: KM12
LOX IMVI = tested on: LOX IMVI
LXFL 529 = tested on: LXFL 529
M14 = tested on: M14
M19-MEL = tested on: M19-MEL
MOLT-4 = tested on: MOLT-4
Malme-3M = tested on: Malme-3M
NCI-H226 = tested on: NCI-H226
NCI-H23 = tested on: NCI-H23
NCI-H460 = tested on: NCI-H460
NCI-H522 = tested on: NCI-H522
OVCAR-3 = tested on: OVCAR-3
OVCAR-4 = tested on: OVCAR-4
OVCAR-5 = tested on: OVCAR-5
OVCAR-8 = tested on: OVCAR-8
RPMI-8226 = tested on: RPMI-8226
RXF 393 = tested on: RXF 393
SF-268 = tested on: SF-268
SF-295 = tested on: SF-295
SF-539 = tested on: SF-539
SK-MEL-28 = tested on: SK-MEL-28
SK-MEL-2 = tested on: SK-MEL-2
SK-MEL-5 = tested on: SK-MEL-5
SK-OV-3 = tested on: SK-OV-3
SN12C = tested on: SN12C
SNB-19 = tested on: SNB-19
SNB-75 = tested on: SNB-75
SR = tested on: SR
SW-620 = tested on: SW-620
TK-10 = tested on: TK-10
U-251 = tested on: U-251
UACC-257 = tested on: UACC-257
UACC-62 = tested on: UACC-62
UO-31 = tested on: UO-31
XF498 = tested on: XF498
HOP-62 = tested on: HOP-62
SNB-78 = tested on: SNB-78

## COc1cccc2c1CCc1ccccc1CC2=O
786-0
  GI50: > 100 µM (inactive)
A498
  GI50: > 100 µM (inactive)
A549
  GI50: > 100 µM (inactive)
ACHN
  GI50: > 100 µM (inactive)
CAKI-1
  GI50: > 100 µM (inactive)
CCRF-CEM
  GI50: > 100 µM (inactive)
COLO 205
  GI50: > 100 µM (inactive)
DLD-1
  GI50: > 100 µM (inactive)
DMS-114
  GI50: > 100 µM (inactive)
DMS-273
  GI50: > 100 µM (inactive)
EKVX
  GI50: > 100 µM (inactive)
HCC 2998
  GI50: > 100 µM (inactive)
HCT-116
  GI50: > 100 µM (inactive)
HCT-15
  GI50: > 100 µM
HL-60
  GI50: > 100 µM (inactive)
HOP-18
  GI50: > 100 µM (inactive)
HOP-92
  GI50: > 100 µM (inactive)
HT-29
  GI50: > 100 µM (inactive)
IGROV-1
  GI50: > 100 µM (inactive)
K562
  GI50: > 100 µM (inactive)
KM-20L2
  GI50: > 100 µM (inactive)
KM12
  GI50: > 100 µM (inactive)
LOX IMVI
  GI50: > 100 µM (inactive)
LXFL 529
  GI50: > 100 µM (inactive)
M14
  GI50: > 100 µM (inactive)
M19-MEL
  GI50: > 100 µM (inactive)
MOLT-4
  GI50: > 100 µM (inactive)
Malme-3M
  GI50: > 100 µM (inactive)
NCI-H226
  GI50: > 100 µM (inactive)
NCI-H23
  GI50: > 100 µM (inactive)
NCI-H460
  GI50: > 100 µM (inactive)
NCI-H522
  GI50: > 100 µM (inactive)
OVCAR-3
  GI50: > 100 µM (inactive)
OVCAR-4
  GI50: 39.2 µM (inactive)
OVCAR-5
  GI50: > 100 µM (inactive)
OVCAR-8
  GI50: > 100 µM (inactive)
RPMI-8226
  GI50: > 100 µM (inactive)
RXF 393
  GI50: > 100 µM (inactive)
SF-268
  GI50: > 100 µM (inactive)
SF-295
  GI50: > 100 µM (inactive)
SF-539
  GI50: > 100 µM (inactive)
SK-MEL-28
  GI50: > 100 µM (inactive)
SK-MEL-2
  GI50: > 100 µM (inactive)
SK-MEL-5
  GI50: > 100 µM (inactive)
SK-OV-3
  GI50: > 100 µM (inactive)
SN12C
  GI50: > 100 µM (inactive)
SNB-19
  GI50: > 100 µM (inactive)
SNB-75
  GI50: > 100 µM (inactive)
SR
  GI50: > 100 µM (inactive)
SW-620
  GI50: > 100 µM (inactive)
TK-10
  GI50: > 100 µM (inactive)
U-251
  GI50: > 100 µM (inactive)
UACC-257
  GI50: > 100 µM (inactive)
UACC-62
  GI50: > 100 µM (inactive)
UO-31
  GI50: > 100 µM (inactive)
XF498
  GI50: > 100 µM (inactive)

## CCOCc1cc(=O)c2c(OC)cc3c(c2o1)CCC(C)(C)O3
786-0
  GI50: > 100 µM (inactive)
A549
  GI50: > 100 µM (inactive)
ACHN
  GI50: > 100 µM (inactive)
CCRF-CEM
  GI50: > 100 µM (inactive)
DLD-1
  GI50: > 100 µM (inactive)
EKVX
  GI50: > 100 µM (inactive)
HCC 2998
  GI50: > 100 µM (inactive)
HCT-116
  GI50: > 100 µM (inactive)
HCT-15
  GI50: > 100 µM
HL-60
  GI50: > 100 µM (inactive)
HOP-18
  GI50: > 100 µM (inactive)
HOP-62
  GI50: > 100 µM (inactive)
HOP-92
  GI50: 33.4 µM (inactive)
HT-29
  GI50: > 100 µM (inactive)
IGROV-1
  GI50: > 100 µM (inactive)
K562
  GI50: > 100 µM (inactive)
KM-20L2
  GI50: > 100 µM (inactive)
KM12
  GI50: > 100 µM (inactive)
LOX IMVI
  GI50: > 100 µM (inactive)
LXFL 529
  GI50: > 100 µM (inactive)
M14
  GI50: > 100 µM (inactive)
M19-MEL
  GI50: > 100 µM (inactive)
MOLT-4
  GI50: > 100 µM (inactive)
Malme-3M
  GI50: > 100 µM (inactive)
NCI-H23
  GI50: > 100 µM (inactive)
NCI-H460
  GI50: > 100 µM (inactive)
NCI-H522
  GI50: > 100 µM (inactive)
OVCAR-3
  GI50: > 100 µM (inactive)
OVCAR-4
  GI50: > 100 µM (inactive)
OVCAR-5
  GI50: > 100 µM (inactive)
OVCAR-8
  GI50: > 100 µM (inactive)
RXF 393
  GI50: > 100 µM (inactive)
SF-295
  GI50: > 100 µM (inactive)
SF-539
  GI50: > 100 µM (inactive)
SK-MEL-28
  GI50: > 100 µM (inactive)
SK-MEL-2
  GI50: > 100 µM (inactive)
SK-MEL-5
  GI50: > 100 µM (inactive)
SK-OV-3
  GI50: > 100 µM (inactive)
SN12C
  GI50: > 100 µM (inactive)
SNB-75
  GI50: > 100 µM (inactive)
SNB-78
  GI50: > 100 µM (inactive)
SR
  GI50: > 100 µM (inactive)
SW-620
  GI50: > 100 µM (inactive)
TK-10
  GI50: > 100 µM (inactive)
U-251
  GI50: > 100 µM (inactive)
UACC-257
  GI50: > 100 µM (inactive)
UACC-62
  GI50: > 100 µM (inactive)
UO-31
  GI50: > 100 µM (inactive)
XF498
  GI50: > 100 µM (inactive)
